Molecules are shown by their SMILES.

Among the data in patent US20250388605A1, “HETEROBIFUNCTIONAL COMPOUNDS AND METHODS OF TREATING DISEASE” (Halda Therapeutics OpCo, Inc., priority 2022, published 2025) are GI50 values, retold here.

The subject of test [1] is T-Rex 293 cell line SC3 cells having increased expression of androgen receptor protein due to exposure to doxycycline. Nature of the test: Cellular growth inhibition, T-Rex 293 SC3 cells with doxycycline (increased androgen receptor expression), CellTiter-Glo. As to conditions: T-Rex 293 SC3 cells with 10 ng/mL doxycycline (increased androgen receptor expression), 72 hours, CellTiter-Glo 2.0. Format: cell-based. A digest of the protocol: (§1)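 Doxycycline (10 ng/mL) was either included or omitted to toggle wild-type androgen receptor expression in SC3 cells, a T-Rex 293 clone, grown in stripped-serum, phenol red-free medium. After 72 hours with compound, viable cells were quantified by CellTiter-Glo 2.0.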

Test [2] has as its system T-Rex 293 cell line SC3 cells lacking increased expression of androgen receptor protein. The experiment in a line: Cellular growth inhibition, T-Rex 293 SC3 cells without doxycycline (no increased androgen receptor expression), CellTiter-Glo. Format: cell-based. As to conditions: T-Rex 293 SC3 cells not exposed to doxycycline (no increased androgen receptor expression), 72 hours. A digest of the protocol:
as §1

Another test concerns VCaP cells. Nature of the test: Cellular growth inhibition assay for VCaP cells, CellTiter-Glo. In kind it is cell-based, human. As to conditions: 72 hours. Put shortly:
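GI50 values come from four-parameter curve fits of luminescence data normalized to a zero baseline. Compound, in medium with 0.5% DMSO, was added one day after plating and left for 72 h before CellTiter-Glo 2.0 addition.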

A further test has as its system T47D cells. The experiment in a line: Cellular Growth Inhibition Assay for T47D Cells (CellTiter-Glo). In kind it is cell-based, human. The settings on record: 72 hours. Put shortly:
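GI50 values derive from four-parameter regression of CellTiter-Glo 2.0 luminescence, using zero luminescence as baseline. Human breast cancer T47D cells (3000/well; DMEM, 10% FBS, 0.2 units/mL insulin) were exposed for 72 h to compound dilutions at 0.5% DMSO, with dosing starting 24 h after seeding.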

Take `Cn1cc(-c2cc(C(C)(C)O)ccc2Oc2cccc(N3CC(CN4CCN(c5ncc(C(=O)N[C@H]6C(C)(C)[C@H](Oc7ccc(C#N)c(Cl)c7)C6(C)C)cn5)CC4(C)C)C3)c2F)c2cc[nH]c2c1=O` [Compound I-294]: the 50% growth inhibitory concentration (GI50) is less than 500 nM in test [1], greater than 3000 nM in test [2], less than 500 nM in the test with VCaP cells and less than 500 nM in the test with T47D cells.

For `CCS(=O)(=O)c1ccc(Oc2ccc(CC3CCN(c4ncc(C(=O)N[C@H]5C(C)(C)[C@H](Oc6ccc(C#N)c(Cl)c6)C5(C)C)cn4)CC3)c(F)c2)c(-c2cn(C)c(=O)c3[nH]ccc23)c1` [Compound I-278], the GI50 in test [1] was less than 500 nM; in test [2] it was greater than 3000 nM; in the test on VCaP cells (Homo sapiens), less than 500 nM; in the test on T47D cells (Homo sapiens), less than 500 nM.

Turning to `CN(C1CCN(c2ncc(C(=O)N[C@H]3C(C)(C)[C@H](Oc4ccc(C#N)c(Cl)c4)C3(C)C)cn2)CC1)C1CN(c2cccc(Oc3ccc(C(C)(C)O)cc3-c3cn(C)c(=O)c4[nH]ccc34)c2F)C1` [Compound I-230], the GI50 in test [1] is less than 500 nM; in test [2], 500 to 1500 nM; in the test with VCaP cells, less than 500 nM; in the test with T47D cells it was less than 500 nM.

For the molecule `CCS(=O)(=O)c1ccc(Oc2cccc(CCN3CC4(C3)CN(c3ncc(C(=O)N[C@H]5C(C)(C)[C@H](Oc6ccc(C#N)c(Cl)c6)C5(C)C)cn3)CCO4)c2F)c(-c2cn(C)c(=O)c3[nH]ccc23)c1` [Compound I-264], the 50% growth inhibitory concentration (GI50) (in test [1]; in test [2]; in the test with VCaP cells (Homo sapiens); with T47D cells (Homo sapiens)) was less than 500 nM each time.

`Cn1cc(-c2cc(C(C)(C)O)ccc2Oc2cccc(N3CC(CN4C5CCC4CC(c4ncc(C(=O)N[C@H]6C(C)(C)[C@H](Oc7ccc(C#N)c(Cl)c7)C6(C)C)cn4)C5)C3)c2F)c2cc[nH]c2c1=O` (stereo partly shown) [Compound I-258]: the GI50 in test [1] was less than 500 nM; in test [2], 500 to 1500 nM; with VCaP cells (Homo sapiens), less than 500 nM; with T47D cells (Homo sapiens) it was less than 500 nM.

Take `CC(C)c1ccc(Oc2cccc(OCCN3CCN(c4ncc(C(=O)N[C@H]5C(C)(C)[C@H](Oc6ccc(C#N)c(Cl)c6)C5(C)C)cn4)CC3)c2F)c(-c2cn(C)c(=O)c3[nH]ccc23)c1` [Compound I-179]: the 50% growth inhibitory concentration (GI50) in test [1] is less than 500 nM; in test [2], greater than 3000 nM; with VCaP cells it was greater than 3000 nM; with T47D cells it was 500 to 1500 nM.

As to `Cn1cc(-c2cc(C(C)(C)O)ccc2Oc2cccc(N3CC(N(C4CC4)C4CCN(c5ncc(C(=O)N[C@H]6C(C)(C)[C@H](Oc7ccc(C#N)c(Cl)c7)C6(C)C)cn5)CC4)C3)c2F)c2cc[nH]c2c1=O` [Compound I-240], the concentration for 50% growth inhibition (GI50) is less than 500 nM in test [1], greater than 3000 nM in test [2], 500 to 1500 nM with VCaP cells and less than 500 nM in the test with T47D cells.

Consider `CCS(=O)(=O)Cc1ccc(Oc2cccc(CCCCC3CCN(c4ncc(C(=O)N[C@H]5C(C)(C)[C@H](Oc6ccc(C#N)c(Cl)c6)C5(C)C)cn4)CC3)c2)c(-c2cn(C)c(=O)c3[nH]ccc23)c1` [Compound I-263], for which the concentration for 50% growth inhibition (GI50) was less than 500 nM in test [1], greater than 3000 nM in test [2], less than 500 nM in the test on VCaP cells (Homo sapiens) and less than 500 nM with T47D cells (Homo sapiens).

Take `CCS(=O)(=O)Nc1ccc(Oc2cccc(N(C)C3CN(c4ncc(C(=O)N[C@H]5C(C)(C)[C@H](Oc6ccc(C#N)c(Cl)c6)C5(C)C)cn4)C3)c2)c(-c2cn(C)c(=O)c3[nH]ccc23)c1` [Compound I-31]: the concentration for 50% growth inhibition (GI50) in test [1] was 500 to 1500 nM; in test [2] it was less than 500 nM; with VCaP cells (Homo sapiens), less than 500 nM; in the test with T47D cells (Homo sapiens) it was less than 500 nM.

With `Cn1cc(-c2cc(S(C)(=O)=O)ccc2Oc2cccc(CCCC3CCN(c4ncc(C(=O)NC5C(C)(C)C(Oc6ccc(C#N)c(Cl)c6)C5(C)C)cn4)CC3)c2)c2cc[nH]c2c1=O` (stereo not shown) [Compound I-249, N-[3-(3-chloro-4-cyano-phenoxy)-2,2,4,4-tetramethyl-cyclobutyl]-2-[4-[3-[3-[2-(6-methyl-7-oxo-1H-pyrrolo[2,3-c]pyridin-4-yl)-4-methyl-sulfonyl-phenoxy]phenyl]propyl]-1-piperidyl]pyrimidine-5-carboxamide], the 50% growth inhibitory concentration (GI50) in test [1] is less than 500 nM; in test [2] it was greater than 3000 nM; in the test on VCaP cells (Homo sapiens) it was 500 to 1500 nM; in the test with T47D cells (Homo sapiens) it was 500 to 1500 nM.
